What all share (format): in vivo
Data set [1] concerns southern armyworm (Spodopetra eridania Cramer). Briefly: Mite/insect screen, sprayed squash leaves (SAW). The following applies: percent mortality; for mortality at 200 ppm / mortality at 400 ppm: Spodoptera eridania, read-out: SAW RESULTS %; for mortality at 200 ppm: spray rate 200 ppm. A digest of the protocol: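 Percent mortality and phytotoxicity are the read-outs, assessed after standard exposure periods. Test solutions, made in 50:50 acetone/alcohol with two sulfonate/nonionic emulsifier blends and diluted in water, are sprayed to runoff on both leaf surfaces, which then dry for one hour.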

Data set [2] has as its system Pyricularia oryzae (rice blast). The settings on record: disease control rating, foliar spray, host rice; 400 ppm (+++ at 100 ppm).
In data set [3] the test system is Pseudoperonospora cubensis (downy mildew). Briefly: Greenhouse Test 1, foliar spray fungicide screen (DOWN MDEW), host squash. The settings on record: disease control rating, 400 ppm (+++ at 100 ppm).
In data set [4] the test system is Botrytis cinerea (gray mold). Briefly: Greenhouse Test 1, foliar spray fungicide screen (GRAY MOLD), host grape berries. The following applies: disease control rating, 400 ppm (+++ at 100 ppm).
The subject of data set [5] is Twospotted spider mites (Tetranychus urticae Koch). Briefly: Mite/insect screen, sprayed squash cotyledons (SM). The settings on record: percent mortality; for mortality at 200 ppm / mortality at 400 ppm: Tetranychus urticae, read-out: SM RESULTS %; for mortality at 200 ppm: spray rate 200 ppm. The essentials:
(§1)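 Acetone/alcohol (50:50) + emulsifier blends 23 g/L and 13 g/L; water dilution to test concs. Spray both leaf surfaces to runoff, dry 1 h. For armyworm, 2 excised uninfested leaves into Petri dish with larvae. Readout: % mortality, phytotoxicity.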

Data set [6] deals with Southern corn rootworm (Diabrotica undecimpuctata howardi Barber). Kind of data set: Mite/insect screen, soil treatment (CRW). The settings on record: percent mortality, soil treatment; for mortality at 12 ppm / mortality at 24 ppm: Diabrotica, read-out: CRW RESULTS %; for mortality at 12 ppm: CRW rate 12.00 ppm. The essentials: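 Compounds dissolved in acetone/alcohol (50:50) with Toximul R/S emulsifiers, diluted with water. Soil (15 g, with presoaked corn seed) treated with 1 mL test solution, dried 6–12 h, then five 2–3 instar larvae added; held at 23°C. Percent mortality and phytotoxicity scored after standard exposure periods.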

The subject of data set [7] is melon aphids (Aphis gossypii Glover). Kind of data set: Mite/insect screen, sprayed squash cotyledons (MA). The following applies: percent mortality; for mortality at 200 ppm / mortality at 400 ppm: Aphis gossypii, read-out: MA RESULTS %; for mortality at 200 ppm: spray rate 200 ppm. The essentials: as §1
Data set [8] deals with Erysiphe graminis tritici (powdery mildew). Kind of data set: Greenhouse Test 1, foliar spray fungicide screen (POWD MDEW), host wheat. The settings on record: disease control rating, 400 ppm (+++ at 100 ppm).
Data set [9] concerns Puccinia recondita tritici (leaf rust). Kind of data set: Greenhouse Test 1, foliar spray fungicide screen (LEAF RUST), host wheat. The settings on record: disease control rating, 400 ppm (+++ at 100 ppm).

Structures are written as SMILES.

Consider `Clc1cccc2c(NCCc3cccc(Oc4ccccc4)c3)ncnc12` [Example 166, 8-chloro-N-[2-(3-phenoxyphenyl)ethyl]-4-quinazolinamine], for which the mortality at 200 ppm in [1], in data set [5] and in [7] was 0% each time. In addition, the values for the mortality at 400 ppm in data set [1] (spray rate 400 ppm), in [5] (spray rate 400 ppm) and in data set [7] (spray rate 400 ppm) were 0%, 0% and 60%, respectively. For the same compound, the “RICE BLAST” value in data set [2] was “++ (++ = 90-100% control at 400 ppm)”. For the same compound, in data set [3], the “DOWN MDEW” value is recorded as “+ (+ = 20-89% control at 400 ppm)”. In addition, the “GRAY MOLD” value in data set [4] is recorded as “- (- = 0-19% control at 400 ppm)”. Further, the mortality at 12 ppm in data set [6] worked out at 0%. In data set [6] (CRW rate 24.00 ppm), the mortality at 24 ppm turned out to be 0%. Moreover, the “POWD MDEW” value in data set [8] is “+ (+ = 20-89% control at 400 ppm)”. Besides, the “LEAF RUST” value in data set [9] is “+++ (+++ = 90-100% control at 100 ppm)”.
For the compound `CC(C)Cc1ccc(C(C)COc2ncnc3ccccc23)cc1` (stereo not shown) [Example 167, 4-[2-[4-(2-methylpropyl)phenyl]propoxy]quinazoline], the mortality at 200 ppm in [1] worked out at 0%; in data set [5], 90%; in data set [7], 90%. Also, the mortality at 400 ppm in data set [1] (spray rate 400 ppm) amounted to 0%; in [5] (spray rate 400 ppm) it was 80%; in [7] (spray rate 400 ppm) it was 80%. Further, the “RICE BLAST” value in data set [2] is “+++ (+++ = 90-100% control at 100 ppm)”. The “DOWN MDEW” value in data set [3] is “- (- = 0-19% control at 400 ppm)”. Besides, in data set [4], the “GRAY MOLD” value is listed as “- (- = 0-19% control at 400 ppm)”. Also, the mortality at 12 ppm in [6] turned out to be 0%. Further, the mortality at 24 ppm in data set [6] (CRW rate 24.00 ppm) is 0%. The “POWD MDEW” value in data set [8] was “+ (+ = 20-89% control at 400 ppm)”. Besides, the “LEAF RUST” value in [9] is reported as “+ (+ = 20-89% control at 400 ppm)”.
With `CC(C)c1ccc(CCCCOc2ncnc3ccccc23)cc1` [Example 168, 4-[4-[4-(i-propyl)phenyl]butoxy]quinazoline], the mortality at 200 ppm in data set [1], in [5] and in data set [7] was 0% throughout. In addition, the mortality at 400 ppm was determined as 0% in [1] (spray rate 400 ppm), 0% in data set [5] (spray rate 400 ppm) and 80% in data set [7] (spray rate 400 ppm). Also, the “RICE BLAST” value in data set [2] is “+++ (+++ = 90-100% control at 100 ppm)”. Further, in [3], the “DOWN MDEW” value was “++ (++ = 90-100% control at 400 ppm)”. Besides, in data set [4], the “GRAY MOLD” value is “- (- = 0-19% control at 400 ppm)”. Further, the mortality at 12 ppm in data set [6] was 0%. In [6] (CRW rate 24.00 ppm), the mortality at 24 ppm came out at 0%. Also, the “POWD MDEW” value in data set [8] is reported as “+++ (+++ = 90-100% control at 100 ppm)”. Moreover, the “LEAF RUST” value in data set [9] is listed as “+ (+ = 20-89% control at 400 ppm)”.
Turning to `CCOc1ccc(CCOc2ncnc3c(F)cccc23)cc1` [Example 170, 4-[2-(4-ethoxyphenyl)ethoxy]-8-fluoroquinazoline], the results for the mortality at 200 ppm in data set [1], in [5] and in [7] were 0%, 20% and 80%, respectively. For the same compound, the mortality at 400 ppm in [1] (spray rate 400 ppm), in data set [5] (spray rate 400 ppm) and in data set [7] (spray rate 400 ppm) was 100% throughout. In addition, the “RICE BLAST” value in [2] is reported as “+++ (+++ = 90-100% control at 100 ppm)”. The “DOWN MDEW” value in data set [3] is “+++ (+++ = 90-100% control at 100 ppm)”. The “GRAY MOLD” value in data set [4] was “- (- = 0-19% control at 400 ppm)”. Also, the mortality at 12 ppm in [6] amounted to 0%. Also, the mortality at 24 ppm in data set [6] (CRW rate 24.00 ppm) turned out to be 0%. Besides, the “POWD MDEW” value in data set [8] was “+++ (+++ = 90-100% control at 100 ppm)”. Also, the “LEAF RUST” value in data set [9] is on record as “+++ (+++ = 90-100% control at 100 ppm)”.
For `Clc1ccc2c(NCCc3cccc(Oc4ccccc4)c3)ncnc2c1` [Example 171, 7-chloro-N-[2-(3-phenoxyphenyl)ethyl]-4-quinazolinamine], the values for the mortality at 200 ppm in [1], in [5] and in [7] were 0%, 20% and 80%, respectively. In addition, the figures for the mortality at 400 ppm in data set [1] (spray rate 400 ppm), in data set [5] (spray rate 400 ppm) and in data set [7] (spray rate 400 ppm) were 0%, 40% and 80%, respectively. Further, in [2], the “RICE BLAST” value was “+++ (+++ = 90-100% control at 100 ppm)”. Besides, in [3], the “DOWN MDEW” value is listed as “+++ (+++ = 90-100% control at 100 ppm)”. For the same compound, the “GRAY MOLD” value in [4] is listed as “- (- = 0-19% control at 400 ppm)”. For the same compound, the mortality at 12 ppm in data set [6] came to 0%. The mortality at 24 ppm in data set [6] (CRW rate 24.00 ppm) amounted to 0%. Also, in [8], the “POWD MDEW” value was “+++ (+++ = 90-100% control at 100 ppm)”. Also, the “LEAF RUST” value in [9] is reported as “+++ (+++ = 90-100% control at 100 ppm)”.
Consider `CC(C)(C)c1ccc(CCOc2nc(C(Cl)(Cl)Cl)nc3ccccc23)cc1` [Example 172, 2-(trichloromethyl)-4-[2-[4-(t-butyl)phenyl]ethoxy]quinazoline], for which the mortality at 200 ppm in [1] came out at 0%; in data set [5] it was 0%; in data set [7], 40%. The mortality at 400 ppm in [1] (spray rate 400 ppm), in data set [5] (spray rate 400 ppm) and in [7] (spray rate 400 ppm) was 0% in each case. Moreover, in [2], the “RICE BLAST” value was “- (- = 0-19% control at 400 ppm)”. Also, the “DOWN MDEW” value in data set [3] is listed as “- (- = 0-19% control at 400 ppm)”. In [4], the “GRAY MOLD” value was “- (- = 0-19% control at 400 ppm)”. Moreover, the mortality at 12 ppm in data set [6] came to 100%. For the same compound, the mortality at 24 ppm in [6] (CRW rate 24.00 ppm) is 0%. In addition, the “POWD MDEW” value in data set [8] was “- (- = 0-19% control at 400 ppm)”. Further, the “LEAF RUST” value in data set [9] was “- (- = 0-19% control at 400 ppm)”.
Take `c1ccc(-c2cccc(CCOc3ncnc4ccccc34)c2)cc1` [Example 173, 4-[2-(1,1'-biphenyl)-3-ylethoxy]quinazoline]: the figures for the mortality at 200 ppm in data set [1], in data set [5] and in [7] were 0%, 0% and 80%, respectively. Moreover, the mortality at 400 ppm in [1] (spray rate 400 ppm), in [5] (spray rate 400 ppm) and in data set [7] (spray rate 400 ppm) was 0% each time. In addition, in [2], the “RICE BLAST” value is “+++ (+++ = 90-100% control at 100 ppm)”. Further, the “DOWN MDEW” value in data set [3] is reported as “+ (+ = 20-89% control at 400 ppm)”. Besides, the “GRAY MOLD” value in [4] is listed as “- (- = 0-19% control at 400 ppm)”. In [6], the mortality at 12 ppm turned out to be 0%. Moreover, the mortality at 24 ppm in data set [6] (CRW rate 24.00 ppm) amounted to 0%. In [8], the “POWD MDEW” value is recorded as “++ (++ = 90-100% control at 400 ppm)”. Besides, the “LEAF RUST” value in data set [9] is recorded as “+ (+ = 20-89% control at 400 ppm)”.
As to `CC(C)(C)c1ccc(CCOc2ncnc3ccc(Cl)cc23)cc1` [Example 174, 6-chloro-4-[2-[4-(t-butyl)phenyl]ethoxy]quinazoline], the results for the mortality at 200 ppm in data set [1], in data set [5] and in data set [7] were 0%, 80% and 0%, respectively. Also, the mortality at 400 ppm in [1] (spray rate 400 ppm) amounted to 0%; in data set [5] (spray rate 400 ppm), 40%; in data set [7] (spray rate 400 ppm) it was 0%. In addition, the “RICE BLAST” value in data set [2] is “++ (++ = 90-100% control at 400 ppm)”. The “DOWN MDEW” value in data set [3] is “++ (++ = 90-100% control at 400 ppm)”. Moreover, the “GRAY MOLD” value in data set [4] is “- (- = 0-19% control at 400 ppm)”. The mortality at 12 ppm in [6] was 0%. Further, in data set [6] (CRW rate 24.00 ppm), the mortality at 24 ppm amounted to 100%. The “POWD MDEW” value in [8] is “+ (+ = 20-89% control at 400 ppm)”. In addition, the “LEAF RUST” value in data set [9] is “- (- = 0-19% control at 400 ppm)”.
Turning to `CC(C)(C)c1ccc(CCOc2ncnc3ccc(Br)cc23)cc1` [Example 175, 6-bromo-4-[2-[4-(t-butyl)phenyl]ethoxy]quinazoline], the mortality at 200 ppm in data set [1] amounted to 100%. Besides, in data set [1] (spray rate 400 ppm), the mortality at 400 ppm was 0% and the “SAW RESULTS %” value worked out at 0%. The “RICE BLAST” value in data set [2] was “++ (++ = 90-100% control at 400 ppm)”. Moreover, the “DOWN MDEW” value in [3] is “- (- = 0-19% control at 400 ppm)”. Besides, the “GRAY MOLD” value in data set [4] was “- (- = 0-19% control at 400 ppm)”. In addition, in [5], the mortality at 200 ppm amounted to 60%. In addition, in [5] (spray rate 400 ppm), the mortality at 400 ppm was found to be 0% and the “SM RESULTS %” value is recorded as 0%. Further, in data set [6], the mortality at 12 ppm was determined as 0%. For the same compound, in data set [6] (CRW rate 24.00 ppm), the mortality at 24 ppm was determined as 0% and the “CRW RESULTS %” value is 0%. For the same compound, the mortality at 200 ppm in data set [7] came out at 80%. In data set [7] (spray rate 400 ppm), the mortality at 400 ppm stood at 0% and the “MA RESULTS %” value is 0%. The “POWD MDEW” value in data set [8] is on record as “- (- = 0-19% control at 400 ppm)”. Besides, the “LEAF RUST” value in data set [9] is recorded as “+ (+ = 20-89% control at 400 ppm)”.

Values taken from patent EP0326329B1, “Quinazoline derivatives useful as insecticides” (Dow AgroSciences LLC, priority 1988, dated 1989).
